# According to patent publication US11020462B2, “Methods for treatment of diseases” (SERPIN PHARMA, LLC, priority 2015, dated 2021):
# Where “and” joins values, the source holds several entries; their conditions need not be identical. Equal values may be shown once. Entries after “also recorded” stand apart in the source; their conditions may differ. Read-outs that look alike come from different tables or passages of the source.
# Tests used:
# healthy mouse = assay: cardiac contractility in the healthy mouse (echocardiography, isoproterenol challenge); assay type: in vivo; details: FIG. 7
# Procedure: To test the effect of SP163M on heart contractility the following study was conducted. […] SP34 is a peptide with a scrambled sequence of SP16 and is used as a control peptide.
# Ten-weeks-old ICR mice were treated with SP163M (100 μg/mouse i.p.), the control peptide SP34 (100 μg/mouse) or the vehicle solution. Echocardiography was used to assess left ventricular (LV) fractional shortening at baseline and after 180 minutes.
# Cardiac contractility reserve was tested with isoproterenol challenge (10 ng/kg i.p.), measuring the increase in LV fractional shortening within 5′ of treatment. Each group included at least 6 mice.
# [1] = SP16 pharmacokinetic profile after intravenous injection (LC/MS/MS of plasma); assay type: in vivo, rats
# Procedure: The following table provides the results from an assay for SP16's pharmacokinetic profile. In performing the assay, three normal rats were injected intravenously with 5 mg/kg SP16 and the plasma concentration of SP16 established at 8 time points following the injection. […] The assay was executed by Apredica, Boston, Mass.
# 111 human receptors = assay: human receptor panning, GenSEP Explorer panel of 111 in vitro assay targets; details: 111 targets
# Description: In addition, we also performed a profile using human receptor panning. The GenSEP Explorer panel contains 111 in vitro assay targets carefully selected to assess drug/chemical biological activities. Assay categories include GPCRs, Voltage-Gated Ion Channels, Ligand-Gated Ion Channels, Neurotransmitter transporters, Nuclear Receptors and Steroids as well as a diverse set of biochemical targets including phosphodiesterases, kinases and other relevant enzymes.
# hERG = target: T1, hERG (Homo sapiens, UniProt Q12809); assay: cell-based; assay type: cell-based
# T1 construct: Apredica, Boston, Mass; (contract laboratory that ran the study)
# TNF-alpha = assay: LPS challenged mouse model of sepsis, TNF-alpha levels; assay type: in vivo
# Description: Specifically, in these particular fragments, the three most N-terminal and the two most C-terminal amino acids appear to play a role in the anti-inflammatory properties of the peptides as replacement of them appeared to reduce the capacity of the peptides to reduce TNF-alpha levels in a LPS challenged mouse model of sepsis (see, e.g., PCT/US13/20498; which is incorporated by reference herein in its entirety). Accordingly, in some aspects of all embodiments of the invention the peptides are selected from SP40, SP43, SP46, and SP49 the peptide sequences of which are set forth in Table B.
# Table C below presents additional exemplary peptides that were used to reduce TNF-alpha levels in mice subjected to an LPS challenge. Also the peptides with capacity to reduce TNF-alpha levels as described in PCT/US13/20498; which is incorporated by reference herein in its entirety, are contemplated for the compositions, pharmaceutical compositions and methods of use and treatment of inflammatory conditions in the present invention.
# recombinant LRP1 protein = target: T2, recombinant LRP1 protein (Homo sapiens, UniProt Q07954); assay: in vitro binding of biotin-peptide to recombinant LRP1 (streptavidin bead pull-down, western blot)
# T2 construct: purchased R&D Systems, Minneapolis, Minn
# Procedure: An in vitro assay was performed to examine SP163M binding to LRP1. To perform the assay, recombinant LRP1 protein (1 μg/ml) (R&D Systems, Minneapolis, Minn.) was incubated on ice in the presence of biotin-SP163M (1-5 μg/ml) at 4° C. for 1 hour. This mixture was then incubated with 1 mg/ml M280 Streptavidin Dynabeads (Invitrogen, Carlsbad, Calif.) for 1.5 hours at 4° C. Dynabeads were washed in PBS+0.1% Tween20 and boiled in SDS loading buffer for 5 minutes. The supernatants were separated on NuPAGE 4-12% Bis-Tris gels (Invitrogen) and transferred to nitrocellulose membranes. The membranes were probed with anti-LRP1 (LRP-1 Cluster II Affinity Purified Polyclonal Ab, R&D, Minneapolis, Minn.) and incubated overnight at 4° C. The membranes were then washed 3 times with TBS-T and incubated with secondary HRP-coupled anti-goat diluted 1:10,000 in 5% milk TBS-T. The western blots were visualized by chemiluminescence using SuperSignal West Femto Maximum Sensitivity Substrate kit (ThermoScientific) and a Bio Rad Molecular Imager ChemiDoc XRS system (Bio-Rad, Hercules, Calif.).
# LRP1 = target: T3, LRP1 (Mus musculus, UniProt Q91ZX7); assay: experimental AMI in mice pretreated with LRP1 blocking antibody; assay type: in vivo; details: LRP1 antibody clone 5A6 3 mg/kg 16 hours before surgery; SP163M 100 μg or AAT 60 mg/kg i.p. after reperfusion, FIG. 14
# T3 construct: from tissue; host or cells: living CD1 mice (heart, in vivo)
# Procedure: To examine the whether LRP1 mediates the cardioprotective effect of SP163M, groups of mice were treated with an LRP1 blocking antibody prior to experimental AMI. The resulting infarct size and LV systolic function were measured
# Adult out-bred male CD1 mice (10 weeks of age) supplied by Harlan Sprague Dawley (Indianapolis, Ind.) were used in this study. A single operator (S.T.) skilled in coronary artery surgical ligation in mice performed all surgeries. Experimental AMI was induced by transient coronary artery ligation of the left anterior descending coronary artery for 30 minutes to induce ischemia of the anterior wall and the apex (visible as pallor) followed by reperfusion, and leading to an infarct involving approximately 15% of the left ventricle. […]
# Infarct size (reported in FIG. 14A) was measured as previously described. […] The infarcted tissue (appearing white) and the viable tissue (bright red) were measured by computer morphometry using Image Pro Plus 6.0 software (Media Cybernetics, Silver Spring, Md.). […]
# LV systolic function (reported in FIG. 14B) was determined as well. […] We measured the left ventricular (LV) end-diastolic and end-systolic areas at B-Mode and the LV end-diastolic diameter (LVEDD), LV end-systolic diameters (LVESD) at M-Mode. LV fractional shortening (FS) and LV ejection fraction (EF) were calculated. […]
# [2] = system: experimental acute myocardial infarction (AMI) in the mouse; details: AAT at onset of ischemia or at time of reperfusion, cited from earlier work
# [3] = system: inflammatory reaction that occurs after AMI; details: pilot clinical study; cited from earlier work
# [4] = rat, in vivo, SP16, IV (5 mg/kg), normal rats
# T1 sequence (Q12809 whole entry): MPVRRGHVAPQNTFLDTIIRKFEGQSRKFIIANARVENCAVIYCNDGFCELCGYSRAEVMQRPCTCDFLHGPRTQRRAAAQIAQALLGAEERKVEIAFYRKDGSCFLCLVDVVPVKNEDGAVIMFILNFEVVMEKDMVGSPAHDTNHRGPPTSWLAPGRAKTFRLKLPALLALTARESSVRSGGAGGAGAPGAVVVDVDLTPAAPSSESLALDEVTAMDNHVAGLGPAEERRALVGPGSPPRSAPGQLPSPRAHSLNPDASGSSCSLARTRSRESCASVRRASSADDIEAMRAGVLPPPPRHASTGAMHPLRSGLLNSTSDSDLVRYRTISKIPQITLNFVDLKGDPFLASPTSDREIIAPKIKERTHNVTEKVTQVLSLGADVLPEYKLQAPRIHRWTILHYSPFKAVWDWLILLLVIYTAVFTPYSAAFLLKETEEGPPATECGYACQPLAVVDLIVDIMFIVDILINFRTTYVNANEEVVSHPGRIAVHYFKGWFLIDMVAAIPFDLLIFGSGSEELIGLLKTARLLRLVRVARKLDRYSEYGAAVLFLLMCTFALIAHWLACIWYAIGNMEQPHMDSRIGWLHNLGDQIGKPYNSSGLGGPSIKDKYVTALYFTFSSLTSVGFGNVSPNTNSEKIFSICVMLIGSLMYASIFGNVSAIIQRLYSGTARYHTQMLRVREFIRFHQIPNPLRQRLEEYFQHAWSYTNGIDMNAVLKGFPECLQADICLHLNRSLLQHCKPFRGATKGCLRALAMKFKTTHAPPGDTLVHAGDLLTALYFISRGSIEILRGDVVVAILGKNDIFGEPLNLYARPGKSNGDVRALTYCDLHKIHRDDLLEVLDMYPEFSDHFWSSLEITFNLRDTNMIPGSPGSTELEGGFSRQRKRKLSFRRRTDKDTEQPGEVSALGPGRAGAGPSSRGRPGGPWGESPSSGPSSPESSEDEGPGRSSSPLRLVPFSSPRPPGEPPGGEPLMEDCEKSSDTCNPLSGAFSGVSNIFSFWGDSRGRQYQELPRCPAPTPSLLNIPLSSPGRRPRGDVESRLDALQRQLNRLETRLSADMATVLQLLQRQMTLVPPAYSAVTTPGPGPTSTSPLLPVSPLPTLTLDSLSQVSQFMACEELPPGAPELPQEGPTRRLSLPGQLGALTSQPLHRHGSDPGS
# T2 sequence (Q07954 with tags, fused parts or gaps limits assumed, species assumed): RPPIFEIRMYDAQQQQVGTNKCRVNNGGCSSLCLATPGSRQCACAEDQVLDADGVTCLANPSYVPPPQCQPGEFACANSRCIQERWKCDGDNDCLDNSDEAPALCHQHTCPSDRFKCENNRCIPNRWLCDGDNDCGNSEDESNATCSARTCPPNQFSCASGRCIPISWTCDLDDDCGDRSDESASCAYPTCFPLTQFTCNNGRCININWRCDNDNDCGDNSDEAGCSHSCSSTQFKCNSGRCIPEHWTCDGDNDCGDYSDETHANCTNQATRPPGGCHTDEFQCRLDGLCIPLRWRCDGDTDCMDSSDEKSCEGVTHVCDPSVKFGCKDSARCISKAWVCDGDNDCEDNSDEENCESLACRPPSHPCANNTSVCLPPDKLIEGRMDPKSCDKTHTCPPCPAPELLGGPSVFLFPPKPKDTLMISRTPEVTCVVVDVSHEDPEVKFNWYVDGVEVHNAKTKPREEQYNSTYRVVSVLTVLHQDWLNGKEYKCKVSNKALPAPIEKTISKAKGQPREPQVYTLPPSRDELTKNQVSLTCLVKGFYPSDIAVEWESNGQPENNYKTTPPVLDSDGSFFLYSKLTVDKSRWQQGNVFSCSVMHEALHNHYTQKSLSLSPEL
compound,measurement,setting,value
CC[C@H](C)[C@H](NC(=O)[C@H](CCSC)NC(=O)[C@H](CC(C)C)NC(=O)[C@H](Cc1ccccc1)NC(=O)[C@@H](NC(=O)[C@H](Cc1ccccc1)NC(=O)[C@@H]1CCCN1C(=O)[C@H](CCCCN)NC(=O)[C@H](CC(N)=O)NC(=O)[C@H](Cc1ccccc1)NC(=O)[C@H](CCCCN)NC(=O)[C@@H](N)C(C)C)C(C)C)C(=O)N[C@@H](CCC(=O)O)C(=O)N[C@@H](CCC(N)=O)C(=O)N[C@@H](CC(N)=O)C(=O)N[C@H](C(=O)N[C@@H](CCCCN)C(=O)O)[C@@H](C)O [SP16],heart contractility,healthy mouse,does not affect heart contractility
same,Last Time point,"[1]; SP16, IV (5 mg/kg), normal rats",8.0
same,Cmax,"[1]; rat, in vivo, iv, 5 mg/kg intravenously, three normal rats",2500 ng/mL
same,half-life,"[1]; rat, in vivo, iv, 5 mg/kg intravenously, three normal rats, read-out: T1/2 (half-life) (converted)",1.9 h
same,C0,[1]; [4],2500 ng/mL
same,MRT inf,[1]; [4],1.1 h
same,AUC,"[1]; rat, in vivo, SP16, IV (5 mg/kg), normal rats, read-out: AUC to Last",900 ng·h/mL
same,clearance,"[1]; rat, in vivo, SP16, IV (5 mg/kg), normal rats, read-out: Total CL (converted)",2.33 mL/min and 9.7 mL/min/kg
same,Vd,"[1]; rat, in vivo, SP16, IV (5 mg/kg), normal rats, read-out: Vss",0.149 L
same,Vd,"[1]; rat, plasma, SP16, IV (5 mg/kg), normal rats, read-out: V",0.374 L
same,effect on the human receptor panel (in words),111 human receptors,not able to identify any hits; also recorded: no effect on 111 human receptors
same,IC50,hERG,> 25 µM
same,comment: concentration-dependent inhibition of hERG observed or not,hERG; 0.008-25 μM,No concentration-dependent
same,activity at 0.008 µM,"hERG; hERG, 0.008 μM",89%
same,activity at 0.04 µM,"hERG; hERG, 0.04 μM",95%
same,activity at 0.2 µM,"hERG; hERG, 0.2 μM",95%
same,activity at 1 µM,"hERG; hERG, 1 μM",78%
same,activity at 5 µM,"hERG; hERG, 5 μM",88%
same,activity at 25 µM,"hERG; hERG, 25 μM",89%
same,inhibition of hERG (in words),hERG; up to 25 μM,does not impact hERG activity; also recorded: does not inhibit hERG
V K F N K P A A A L M I E Q N T K (VKFNKPAAALMIEQNTK; listed as Homo sapiens) [SP43],anti-inflammatory effect,TNF-alpha,particularly good anti-inflammatory effect
V K F N K P F V F A A A E Q N T K (VKFNKPFVFAAAEQNTK; listed as Homo sapiens) [SP46],anti-inflammatory effect,TNF-alpha,particularly good anti-inflammatory effect
V K F N K P F V F L M I E Q A A A (VKFNKPFVFLMIEQAAA; listed as Homo sapiens) [SP51],binding to LRP1 (statement without method),recombinant LRP1 protein,bind LRP1
A A A N K P F V F L M I E Q N T K (AAANKPFVFLMIEQNTK; listed as Homo sapiens) [SP37],binding to LRP1 (statement without method),recombinant LRP1 protein,bind LRP1
"AAT: plasma derived alpha-1 antitrypsin (AAT) (Aralast N P, Baxter); circulating serum protein, parent of SP16","protective effects (infarct size, LV systolic function) after LRP1 blocking antibody",LRP1,eliminates the cardioprotective effects; also recorded: eliminated the protective effects
same,infarct size,"[2]; vs albumin, FIG. 3",significantly smaller infarct size; also recorded: reduces infarct size
same,cardiac healing and remodeling,[2],more favorable cardiac healing and remodeling
same,safety and efficacy in blocking the inflammatory reaction after AMI,[3],preliminary safety and efficacy
V K F N K P F V F L M I A A A T K (VKFNKPFVFLMIAAATK; listed as Homo sapiens) [SP49],anti-inflammatory effect,TNF-alpha,particularly good anti-inflammatory effect
V K F A A A F V F L M I E Q N T K (VKFAAAFVFLMIEQNTK; listed as Homo sapiens) [SP40],binding to LRP1 (statement without method),recombinant LRP1 protein,bind LRP1
same,anti-inflammatory effect,TNF-alpha,particularly good anti-inflammatory effect
